Results reported in patent US20250161287A1, “METHODS, COMPOSITIONS, AND COMBINATIONS FOR PREVENTING OR TREATING CANCER RECURRENCE” (VUJA DE SCIENCES, INC., priority 2022, published 2025).
Values joined by “and” are separate entries in the source; they are usually repeats but may differ in a detail not shown here. Identical values can stand only once. “Also recorded” adds a separate entry of the source. Like-named read-outs stand apart in the source and are kept apart here.

Legend:
[1] = test system: MG63.3 OS cell line; assay: 2D growth / cytotoxicity by MTT, MG63.3; settings: for doses exhibiting cytotoxicity on 2D growth: 72 h
Description: The number of viable cells present in 2D culture was determined by MTT as previously reported. Briefly, cells were plated in 96-well plates at 2,000 cells/well and incubated at 37° C. for 24 h. After 24 h, the media was replaced with fresh media containing drugs at the desired concentrations (10 pM-10 μM) and incubated at 37° C. for 72 h. After 72 h, MTT reagent (20 L/well of a 5 mg/mL stock solution in sterile water; Sigma, St. Louis, MO) was added to each well and the plate was incubated at 37° C. for 2 h. DMSO ([…]) was then added to each well to solubilize the formazan crystals.
The resulting absorbance was measured at 490 nm via plate reader (Molecular Devices, San Jose, CA). DMSO (0.1%) was used as vehicle control, while 20 μM rapamycin was used as a positive cell-kill control. The experimental conditions were conducted in triplicate and each experiment was repeated three times. Regression lines and IC50's were calculated using a four-parameter variable slope nonlinear fit in GraphPad Prism.

[2] = test system: MG63.3 OS cell line; assay: in vitro 3D BME assay with MG63.3 OS cell line; format: cell-based, human; settings: for activity on 3D BME compared with 2D: MG63.3, 3D BME vs 2D MTT 72 h; for 3D activity and selectivity for ME in a screen of 10 HDAC inhibitors: selectivity = ratio of 3D to 2D % inhibition at the same dose, Class I, Class II, pan-HDAC
Text: 3D basement membrane extract (BME) assay was developed at the NCI Barkan (D. Barkan et al. 2008; Dalit Barkan and Green 2011; Hen and Barkan 2020). BME is purified from Engelbreth-Holm-Swarm (EHS) tumor, primarily made up of laminin, collagen IV, entactin, and heparin sulfate proteoglycans (Cultrex Reduced Growth Factor Basement Membrane Extract, PathClear n.d.), which allows it to more accurately reflect the 3D extracellular environment in the body.
Initially >150 selected therapeutic agents were tested on BME based on the likelihood for either a positive effect or a […] negative effect (as negative controls). […] These therapeutic agents were also tested in dose response (as broad as 1 pM-100 μM) for 2D cytotoxicity (MTT) and the IC50 was calculated. Where required, the hits from the initial screen were also further characterized at additional doses <100 nM in order to further determine the relative selectivity compared to the 2D IC50.
The influence of drug exposure on the metastatic phenotype was assessed in an in vitro assay of ME and escape from dormancy using a 3D BME assay as previously reported, which was adapted for use with OS cells.
Cultrex® PathClear, Reduced Growth Factor Basement Membrane Extract (BME—Bio-Techne, Minneapolis, MN) was added ([…]) to a 96-well plate and allowed to gel by incubating at 37° C. for ≥30 min. Cells were harvested, washed with DMEM (no glucose, no FBS, Gibco, Grand Island, NY) and centrifuged at 1500 g×5 mins. The media was aspirated and the remaining cell pellet flicked for about 10 s to ensure disaggregation.
Cells were diluted in assay media containing 2% BME, resuspended vigorously and 150 μL of the cell suspension was added on top of the gelled 3D BME layer. […] Cell numbers were determined in control vehicle (cells in media+0.1% DMSO), or treated wells and were measured on the indicated days by addition of 20 μL/well of MTS reagent (Cell Titer 96 Aqueous One, Promega, Madison, WI), followed by incubation at 37° C. for 2 h and absorbance measurements at 490 nm via plate reader (Molecular Devices, San Jose CA).
All conditions were conducted in quadruplicate and each experiment was carried out at least 3 separate times. All comparisons were made between treatment and vehicle control at concordant time points. Statistical analyses and non-linear regressions were derived using GraphPad Prism statistical software.

[3] = Homo sapiens, MG-63.3, read-out: lowest dose leading to appreciable inhibition of 3D growth
[4] = MG63.3 on 3D BME, vs vehicle control, replicates=4, read-out: lowest dose leading to appreciable inhibition of 3D growth
[5] = Homo sapiens, MG-63.3, MG63.3 on 3D BME, vs vehicle control, replicates=4, read-out: lowest dose leading to appreciable inhibition of 3D growth
[6] = MG63.3 on 3D BME, vs vehicle control, replicates=4
[7] = domatinostat 100-200 nM, MG63.3

O=C(NOC[C@H](O)CO)c1ccc(F)c(F)c1Nc1ccc(I)cc1F [PD0325901]
inhibition in 2D at this dose ([1]; PD0325901 1-128 nM, MG63.3): no statistically significant inhibition
doses exhibiting cytotoxicity on 2D growth ([1]; human): ≥ 100 nM
minimal effective concentration [2, 3]: 0.001 µM
activity on 3D BME compared with 2D [2]: much stronger activity on 3D BME at similar doses; also recorded: more active in 3D than in 2D
growth inhibition in the 3D BME assay ([2]; PD0325901 1-128 nM, MG63.3): 50-75%

O=C(/C=C/c1cccnc1)NCCCCC1CCN(C(=O)c2ccccc2)CC1 [(E)-daporinad]
doses exhibiting cytotoxicity on 2D growth ([1]; human): > 0.1 nM
activity on 3D BME compared with 2D [2]: much stronger activity on 3D BME at significantly lower doses
minimal effective concentration [2, 4]: 0.0001 µM

Cc1[nH]c2ccccc2c1CCNCc1ccc(/C=C/C(=O)NO)cc1 [panobinostat]
doses exhibiting cytotoxicity on 2D growth ([1]; human): ≥ 80 nM
minimal effective concentration [2, 5]: 0.04 µM

COc1ccc(-c2nc(N3CCOCC3)c3sc(CN(C)c4ncc(C(=O)NO)cn4)cc3n2)cn1 [fimepinostat]
doses exhibiting cytotoxicity on 2D growth ([1]; human): ≥ 1 nM
3D activity and selectivity for ME in a screen of 10 HDAC inhibitors ([2]; MG63.3): 3D activity and selectivity for ME
lowest dose leading to complete inhibition of 3D growth [2, 6]: 5 nM

O=C(/C=C/c1cccc(S(=O)(=O)Nc2ccccc2)c1)NO [belinostat]
doses exhibiting cytotoxicity on 2D growth ([1]; human): ≥ 80 nM
minimal effective concentration [2, 5]: 0.2 µM
3D activity and selectivity for ME in a screen of 10 HDAC inhibitors ([2]; MG63.3): 3D activity and selectivity for ME

C=CCNC1=C2C[C@@H](C)C[C@H](OC)[C@H](O)[C@@H](C)/C=C(\C)[C@H](OC(N)=O)[C@@H](OC)/C=C\C=C(/C)C(=O)NC(=CC1=O)C2=O [tanespimycin]
doses exhibiting cytotoxicity on 2D growth ([1]; MG63.3, MTT, replicates=3): > 25 nM
minimal effective concentration [2, 3]: 0.025 µM

CCN(CC)Cc1ccc2cc(COC(=O)Nc3ccc(C(=O)NO)cc3)ccc2c1 [givinostat]
doses exhibiting cytotoxicity on 2D growth ([1]; human): ≥ 600 nM
minimal effective concentration [2, 5]: 0.3 µM
activity on 3D BME compared with 2D [2]: more active in 3D than in 2D
3D activity and selectivity for ME in a screen of 10 HDAC inhibitors ([2]; MG63.3): highest 3D activity and selectivity for ME
3D growth inhibition and selectivity for ME at selected dose ([2]; givinostat 400 nM, quisinostat 10 nM, MG63.3 3D BME): significant 3D growth inhibition and selectivity for ME

CNC(=O)c1cccc(-c2ccc3c(N4CCOC[C@@H]4C)nc(N4CCOC[C@@H]4C)nc3n2)c1 [vistusertib]
doses exhibiting cytotoxicity on 2D growth ([1]; human): > 0.64 nM
minimal effective concentration [2, 5]: 0.1 µM
activity on 3D BME compared with 2D [2]: slightly stronger activity on 3D BME at 100 nM

CO[C@@]12[C@H](COC(N)=O)C3=C(C(=O)C(C)=C(N)C3=O)N1C[C@@H]1N[C@@H]12 [mitomycin C]
IC50 ([1]; read-out: 2D IC50, MG63.3, MTT 72 h): 1 µM and ~1 µM
IC50 ([2]; MG63.3): 0.05 µM
activity on 3D BME compared with 2D [2]: much stronger activity on 3D BME at significantly lower doses; also recorded: more active in 3D than in 2D
minimal effective concentration [2, 4]: 0.0125 µM

CC(C)[C@]12O[C@H]1[C@@H]1O[C@]13[C@]1(O[C@H]1C[C@H]1C4=C(CC[C@@]13C)C(=O)OC4)[C@@H]2OCOP(=O)(O)O [minnelide]
doses exhibiting cytotoxicity on 2D growth ([1]; MG63.3, MTT, replicates=3): ≥ 0.781 nM
lowest dose leading to complete inhibition of 3D growth [2, 6]: 4 nM

Cn1cc(-c2ccc(S(=O)(=O)n3ccc(/C=C/C(=O)Nc4ccccc4N)c3)cc2)cn1 [domatinostat]
inhibition in 2D at these doses [1, 7]: no statistically significant inhibition
doses exhibiting cytotoxicity on 2D growth ([1]; human): ≥ 200 nM
earlier (2 days on, 4 days off) vs later (2 days off, 4 days on) treatment ([2]; FIG. 68, rapamycin 2-16 nM experiment, MG63.3 3D BME): slightly more inhibition than later treatment
minimal effective concentration [2, 5]: 0.1 µM
activity on 3D BME compared with 2D [2]: much stronger activity on 3D BME at similar doses; also recorded: more active in 3D than in 2D
3D activity and selectivity for ME in a screen of 10 HDAC inhibitors ([2]; MG63.3): highest 3D activity and selectivity for ME
efficacy of domatinostat alone treated for 1 day ([2]; domatinostat 100-200 nM, 1 day on, 5 days off): little to no efficacy
growth inhibition in the 3D BME assay [2, 7]: 20-50%
inhibition of 3D growth relative to vehicle, two schedules ([2]; domatinostat 200-800 nM, Days 3-6 (2 days off, 4 days on) or Days 1-2 (2 days on, 4 days off), P<0.005): significantly inhibition relative to vehicle for both treatment schedules
earlier (2 days on, 4 days off) vs later (2 days off, 4 days on) treatment ([2]; domatinostat 200-800 nM, MG63.3 3D BME): slightly more inhibition than later treatment
re-treatment on Day 3 vs treated once, inhibition of 3D growth ([2]; rapamycin 1 nM, domatinostat 100 & 150 nM, combination, P<0.01 for all except 100 nM domatinostat alone): significantly increased inhibition relative to the conditions only treated with drug once

CC(C)[C@]12O[C@H]1[C@@H]1O[C@]13[C@]1(O[C@H]1C[C@H]1C4=C(CC[C@@]13C)C(=O)OC4)[C@@H]2O [triptolide]
cytotoxicity on 2D growth [1]: cytotoxicity at all doses tested
lowest dose leading to complete inhibition of 3D growth [2, 6]: 1 nM

C=CCNc1c(O)cc2c(O)c1C[C@@H](C)C[C@H](OC)[C@H](O)[C@@H](C)/C=C(\C)[C@H](OC(N)=O)[C@@H](OC)/C=C\C=C(/C)C(=O)N2 [retaspimycin]
doses exhibiting cytotoxicity on 2D growth ([1]; MG63.3, MTT, replicates=3): > 400 nM
minimal effective concentration [2, 5]: 0.2 µM

O=C(NC[C@H](O)CO)c1ccncc1Nc1ccc(I)cc1F [pimasertib]
doses exhibiting cytotoxicity on 2D growth ([1]; human): above 1 nM
lowest dose leading to complete inhibition of 3D growth [2, 6]: 100 nM

CO[C@H]1C[C@@H]2CC[C@@H](C)[C@@](O)(O2)C(=O)C(=O)N2CCCC[C@H]2C(=O)O[C@H]([C@H](C)C[C@@H]2CC[C@@H](OCCO)[C@H](OC)C2)CC(=O)[C@H](C)/C=C(\C)[C@@H](O)[C@@H](OC)C(=O)[C@H](C)C[C@H](C)/C=C/C=C/C=C/1C [everolimus]
cytotoxicity on 2D growth [1]: cytotoxicity across all doses tested
minimal effective concentration [2, 5]: 0.01 µM
activity on 3D BME compared with 2D [2]: much stronger activity on 3D BME at similar doses

CO[C@H]1/C=C\C=C(/C)C(=O)NC2=CC(=O)C(NCCN(C)C)=C(C[C@@H](C)C[C@H](OC)[C@H](O)[C@@H](C)/C=C(\C)[C@@H]1OC(N)=O)C2=O [alvespimycin]
doses exhibiting cytotoxicity on 2D growth ([1]; MG63.3, MTT, replicates=3): > 25 nM
minimal effective concentration [2, 5]: 0.0125 µM
activity on 3D BME compared with 2D [2]: much stronger activity on 3D BME at significantly lower doses

NS(=O)(=O)OC[C@@H]1C[C@@H](n2ccc3c(N[C@H]4CCc5ccccc54)ncnc32)C[C@@H]1O [pevonedistat]
inhibition at 0.025 µM ([1]; Homo sapiens, MG-63.3, read-out: inhibition in 2D): 20%
doses exhibiting cytotoxicity on 2D growth ([1]; human): > 10 nM
inhibition at 0.025 µM ([2]; Homo sapiens, MG-63.3, pevonedistat 25 nM, MG63.3): 47%
activity on 3D BME compared with 2D [2]: much stronger activity on 3D BME at significantly lower doses; also recorded: more active in 3D than in 2D

COc1cc(Nc2ncc3c(n2)-c2ccc(Cl)cc2C(c2c(F)cccc2OC)=NC3)ccc1C(=O)O [alisertib]
doses exhibiting cytotoxicity on 2D growth ([1]; human): > 25 nM
minimal effective concentration [2, 5]: 0.0125 µM
activity on 3D BME compared with 2D [2]: much stronger activity on 3D BME at significantly lower doses

CC1(C)CCC(c2ccc(Cl)cc2)=C(CN2CCN(c3ccc(C(=O)NS(=O)(=O)c4ccc(N[C@H](CCN5CCOCC5)CSc5ccccc5)c(S(=O)(=O)C(F)(F)F)c4)cc3)CC2)C1 [navitoclax]
doses exhibiting cytotoxicity on 2D growth ([1]; human): ≥ 1000 nM
inhibition in 2D ([1]; navitoclax 500-2000 nM, MG63.3): 0-25%
minimal effective concentration [2, 5]: 0.5 µM
activity on 3D BME compared with 2D [2]: much stronger activity on 3D BME at similar doses; also recorded: more active in 3D than in 2D
growth inhibition in the 3D BME assay ([2]; navitoclax 500-2000 nM, MG63.3): 50-60%

COc1c(C)cnc(Cn2cnc3c(Cl)nc(N)nc32)c1C [BIIB021]
doses exhibiting cytotoxicity on 2D growth ([1]; human): > 10 nM
minimal effective concentration [2, 5]: 0.008 µM
activity on 3D BME compared with 2D [2]: much stronger activity on 3D BME at significantly lower doses
